These are literature values, as cited in patent US20240398698A1, “CONAZOLANTIFUNGAL KETOE IN SOLUTION OR SUSPENSION FOR USE IN THE HUMAN EAR” (priority 2023, published 2024).

Structures are written as SMILES.

Turning to `CC(=O)N1CCN(c2ccc(OCC3COC(Cn4ccnc4)(c4ccc(Cl)cc4Cl)O3)cc2)CC1` (stereo not drawn) [Ketoconazole, ketoconazole], under “acetic acid”, the “solubility in acetic acid” value was “not soluble”. For the same compound, the solubility in alcohol entry (alcohol) is listed as “soluble”. Also, the solubility in water result (water) is given as “poorly soluble”.
